Test results as given in US10344019B2 (priority 2010, dated 2019).
Like-named read-outs stand apart in the source and are kept apart here.

How the values were obtained:
Assay in all cases: microbe, parasite or virus in culture
Format in all cases: cell-based
[1] = test system: HCV 1a RLuc cells (dicistronic genotype 1a H77 replicon, RLuc reporter); details: Hepatitis C virus, read-out: 1a
Summary of the method: (§1)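 Renilla luciferase HCV replicon cells: dicistronic 1b Con1, 1a H77 or 2a JFH-1 replicons, or a JFH-1 chimera carrying J6 NS5A (M31 present). Compound in DMSO serial dilutions, 72 h incubation, then lysis and luciferase read. EC50 by non-linear regression.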

[2] = test system: HCV 1b RLuc cells (dicistronic genotype 1b Con1 replicon, RLuc reporter); details: Hepatitis C virus, read-out: 1b (nM)
Summary of the method: as §1

[3] = test system: HCV 2a JFH-1 Rluc cells (dicistronic genotype 2a JFH-1 replicon, RLuc reporter); details: Hepatitis C virus, genotype 2a JFH-1 replicon, read-out: 2a JFH
Summary of the method: as §1

[4] = test system: HCV 3a RLuc cells (NS5A chimeric genotype 1b Con1 replicon with consensus genotype 3a NS5A gene); details: Hepatitis C virus
Summary of the method: (§2)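 Replicon cells stably carrying the listed RLuc-encoding dicistronic replicons were seeded and treated with DMSO serial dilutions of compound (10 mM stocks) diluted into culture medium. After 72 h, cells were lysed and Renilla luciferase activity measured. EC50 was derived by non-linear regression.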

[5] = test system: HCV 4a Rluc cells (NS5A chimeric genotype 1b Con1 replicon with genotype 4a NS5A gene); details: Hepatitis C virus, read-out: 4a
Summary of the method: as §2

[6] = 72 h, Table 2, genotype 1a H77 replicon, 72 hours
[7] = read-out: 3a, Table 2, genotype 3a NS5A chimeric replicon
[8] = genotype 1a H77 replicon, RLuc reporter
[9] = read-out: 3a, genotype 3a NS5A chimeric 1b Con1 replicon
[10] = read-out: 3a, genotype 3a replicon

Structure (SMILES) | EC50 [1, 6] [nM] | EC50 ([2]; 72 h) [nM] | EC50 ([3]; 72 h, Table 2, 72 hours) [nM] | EC50 [4, 7] [nM] | EC50 [5] [nM] | EC50 [1, 8] [nM] | EC50 [2] [nM] | EC50 ([3]; RLuc reporter) [nM] | EC50 [4, 9] [nM] | other results
COC(=O)NC(C(=O)N1[C@@H]2CC[C@@H](C2)[C@H]1c1nc2ccc(-c3ccc4c(c3)C(F)(F)c3cc(-c5c[nH]c([C@H]6CCCN6C(=O)[C@H](NC(=O)OC)c6ccccc6)n5)ccc3-4)cc2[nH]1)[C@@H](C)OC (stereo partly drawn) [Example 75] | 0.001 to 0.999 | 0.005 | 0.001 to 0.999 | 0.001 to 0.99 | 0.001 to 0.99 | – | – | – | – | –
COC(=O)N[C@H](C(=O)N1CCC[C@H]1c1nc2c([nH]1)COc1cc(-c3ccc4cc(-c5c[nH]c([C@@H]6CCCN6C(=O)[C@@H](c6ccccc6)N(C)C)n5)ccc4c3)ccc1-2)C(C)C [Example 177] | – | – | – | – | 0.001 to 0.99 | 0.001 to 0.999 | 0.01 | 0.001 to 0.999 | 0.001 to 0.99 | –
COC(=O)N[C@H](C(=O)N1[C@@H]2CC[C@@H](C2)[C@H]1c1ncc(-c2ccc3cc(-c4ccc5c(ccc6nc([C@@H]7CCCN7C(=O)[C@H](NC(=O)OC)c7ccccc7)[nH]c65)c4)ccc3c2)[nH]1)C1CCOCC1 [Example 101] | 0.001 to 0.999 | 0.011 | 0.001 to 0.999 | 0.001 to 0.99 | 0.001 to 0.99 | – | – | – | – | –
COC(=O)N[C@H](C(=O)N1CCC[C@H]1c1ncc(-c2cc3c4c(c2)CCc2cc(-c5cnc([C@@H]6CCCN6C(=O)[C@@H](NC(=O)OC)C(C)C)[nH]5)cc(c2-4)CC3)[nH]1)C(C)C [Example 20] | – | 0.021 | – | – | 0.001 to 0.99 | – | – | – | – | EC50 ([1]; 72 h, Table 1, genotype 1a H77 replicon, 72 hours): 0.001 to 0.999 nM; EC50 ([3]; 72 h, Table 1, 72 hours): 0.001 to 0.999 nM; EC50 ([4]; read-out: 3a, Table 1, genotype 3a NS5A chimeric replicon): 0.001 to 0.99 nM
COC(=O)N[C@@H](C(=O)N1CCC[C@H]1c1ncc(-c2ccc3cc(-c4ccc5c(c4)CCc4nc([C@@H]6CCCN6C(=O)[C@@H](NC(O)OC)C6CCN(S(C)(=O)=O)CC6)[nH]c4-5)ccc3c2)[nH]1)c1ccccc1 (stereo partly drawn) [Example 281] | – | – | – | – | 0.001 to 0.99 | 0.001 to 0.999 | 0.063 | 0.001 to 0.999 | 0.001 to 0.99 | –
COC(=O)N[C@H](C(=O)N1CCC[C@H]1c1nc2c([nH]1)-c1ccc(-c3ccc4cc(-c5cnc([C@@H]6CCCN6C(=O)[C@H](NC(=O)CN6CCOCC6)c6ccccc6)[nH]5)ccc4c3)cc1CC2)C(C)C [Example 245] | – | – | – | – | 0.001 to 0.99 | 0.001 to 0.999 | 0.017 | 0.001 to 0.999 | 0.001 to 0.99 | –
COC(=O)NC(C(=O)N1CC2(CC2)C[C@H]1c1ncc(-c2ccc(-c3ccc4cc(-c5cnc([C@@H]6CCCN6C(=O)[C@H](NC(=O)OC)c6ccccc6)[nH]5)ccc4c3)cc2)[nH]1)[C@@H](C)OC (stereo partly drawn) [Example 262] | – | – | – | – | 0.001 to 0.99 | 0.001 to 0.999 | 0.008 | 0.001 to 0.999 | 0.001 to 0.99 | –
COC(=O)N[C@H](C(=O)N1CCC[C@H]1c1ncc(-c2cc3c4c(c2)OCc2cc(-c5cnc([C@@H]6CCCN6C(=O)[C@@H](NC(=O)OC)C6CCCC6)[nH]5)cc(c2-4)OC3)[nH]1)C1CCCC1 [Example 377] | – | – | – | – | 0.001 to 0.99 | – | 0.022 | – | – | EC50 ([1]; genotype 1a replicon): 0.001 to 0.999 nM; EC50 [3]: 0.001 to 0.999 nM; EC50 [4, 10]: 0.001 to 0.99 nM
COC(=O)N[C@H](C(=O)N1[C@@H]2CC[C@@H](C2)[C@H]1c1ncc(-c2ccc(-c3ccc4cc(-c5cnc([C@@H]6CCCN6C(=O)[C@H](NC(=O)OC)c6ccccc6)[nH]5)ccc4c3)cc2)[nH]1)C(C)C [Example 42] | 0.001 to 0.999 | 0.008 | 0.001 to 0.999 | 1 to 4.99 | 0.001 to 0.99 | – | – | – | – | –
COC(=O)N[C@H](C(=O)N1CCC[C@H]1c1ncc(-c2ccc(C#Cc3ccc4c(ccc5nc([C@@H]6CCCN6C(=O)[C@@H](NC(=O)OC)C6CCOCC6)[nH]c54)c3)cc2)[nH]1)C(C)C [Example 229] | – | – | – | – | 0.001 to 0.99 | 0.001 to 0.999 | 0.018 | 0.001 to 0.999 | 1 to 4.99 | –
COC(=O)N[C@H](C(=O)N1CCC[C@H]1c1nc2ccc3cc(-c4ccc5c(ccc6nc([C@@H]7[C@H]8CC[C@H](C8)N7C(=O)[C@@H](NC(=O)OC)[C@@H](C)OC)[nH]c65)c4)ccc3c2[nH]1)C(C)C [Example 64] | 0.001 to 0.999 | 0.018 | 0.001 to 0.999 | 0.001 to 0.99 | 0.001 to 0.99 | – | – | – | – | –
COC(=O)N[C@H](C(=O)N1CC(F)(F)C[C@H]1c1ncc(-c2ccc(-c3ccc4cc(-c5cnc([C@@H]6CCCN6C(=O)[C@H](NC(=O)OC)c6ccccc6)[nH]5)ccc4c3)cc2)[nH]1)[C@@H](C)OC [Example 263] | – | – | – | – | 0.001 to 0.99 | 0.001 to 0.999 | 0.006 | 0.001 to 0.999 | 0.001 to 0.99 | –
COC(=O)N[C@H](C(=O)N1CCC[C@H]1c1nc2c([nH]1)-c1ccc(-c3ccc4c(ccc5nc([C@@H]6CC7(CN6C(=O)[C@H](NC(=O)OC)c6ccccc6)OCCO7)[nH]c54)c3)cc1CC2)C(C)C [Example 366] | – | – | – | – | 0.001 to 0.99 | – | 0.075 | – | – | EC50 ([1]; genotype 1a replicon): 0.001 to 0.999 nM; EC50 [3]: 0.001 to 0.999 nM; EC50 [4, 10]: 0.001 to 0.99 nM
COC(=O)N[C@H](C(=O)N1CCS[C@H]1c1nc2ccc3cc(-c4ccc(-c5cnc([C@@H]6CCCN6C(=O)[C@@H](NC(=O)OC)C6CCOCC6)[nH]5)cc4)ccc3c2[nH]1)C(C)C [Example 316] | – | – | – | – | 0.001 to 0.99 | – | 0.242 | – | – | EC50 ([1]; genotype 1a replicon): 0.001 to 0.999 nM; EC50 [3]: 0.001 to 0.999 nM; EC50 [4, 10]: 0.001 to 0.99 nM
COC(=O)N[C@H](C(=O)N1CCC[C@H]1c1nc2ccc3cc(-c4ccc5cc(-c6cnc([C@@H]7CCCN7C(=O)[C@@H](NC(=O)OC)C7CCOCC7)[nH]6)ccc5c4)ccc3c2[nH]1)C(C)C [Example 195] | – | – | – | – | 0.001 to 0.99 | 0.001 to 0.999 | 0.023 | 0.001 to 0.999 | 1 to 4.99 | –
COC(=O)N[C@H](C(=O)N1[C@@H]2CC[C@@H](C2)[C@H]1c1ncc(-c2ccc3c(c2)CCc2cc(-c4cnc([C@@H]5CCCN5C(=O)[C@@H](NC(=O)OC)C5CCOCC5)[nH]4)ccc2-3)[nH]1)C(C)C [Example 86] | 0.001 to 0.999 | 0.034 | 0.001 to 0.999 | 1 to 4.99 | 0.001 to 0.99 | – | – | – | – | –
CC#Cc1cc(-c2cnc([C@@H]3CCCN3C(=O)[C@@H](NC(=O)OC)C(C)C)[nH]2)ccc1-c1ccc(-c2cnc([C@@H]3CCCN3C(=O)[C@H](NC(=O)OC)c3ccccc3)[nH]2)cc1 [Example 348] | – | – | – | – | 0.001 to 0.99 | – | 0.011 | – | – | EC50 ([1]; genotype 1a replicon): 0.001 to 0.999 nM; EC50 [3]: 0.001 to 0.999 nM; EC50 [4, 10]: 0.001 to 0.99 nM
COC(=O)N[C@H](C(=O)N1CC2(C[C@H]1c1nc3ccc(-c4ccc5c(c4)C(F)(F)c4cc(-c6cnc([C@@H]7CCCN7C(=O)[C@H](NC(=O)OC)c7ccccc7)[nH]6)ccc4-5)cc3[nH]1)OCCO2)C1CCOCC1 [Example 59] | 0.001 to 0.999 | 0.016 | 0.001 to 0.999 | 0.001 to 0.99 | 0.001 to 0.99 | – | – | – | – | –
COC(=O)N[C@H](C(=O)N1CCC[C@H]1c1nc2c3ccccc3c3cc(-c4ccc(-c5cnc([C@@H]6CCCN6C(=O)[C@@H](NC(=O)OC)C6CCOCC6)[nH]5)cc4)ccc3c2[nH]1)C(C)C [Example 300] | – | – | – | – | 0.001 to 0.99 | – | 0.023 | – | – | EC50 ([1]; genotype 1a replicon): 1 to 44 nM; EC50 [3]: 0.001 to 0.999 nM; EC50 [4, 10]: 1 to 4.99 nM
COC(=O)N[C@H](C(=O)N1CCC[C@H]1c1nc2ccc3cc(-c4ccc5cc(-c6cnc([C@@H]7[C@H]8CC[C@H](C8)N7C(=O)[C@H](NC(=O)OC)c7ccccc7)[nH]6)ccc5c4)ccc3c2[nH]1)C1CCOCC1 [Example 84] | 0.001 to 0.999 | 0.007 | 0.001 to 0.999 | 0.001 to 0.99 | 0.001 to 0.99 | – | – | – | – | –
COC(=O)N[C@H](C(=O)N1CCC[C@H]1c1ncc(-c2ccc3cc(-c4ccc(-c5cnc([C@@H]6CCCN6C(=O)C6(NC(=O)OC)CCc7ccccc76)[nH]5)cc4)ccc3c2)[nH]1)C(C)C (stereo partly drawn) [Example 196] | – | – | – | – | 0.001 to 0.99 | 1 to 44 | 0.036 | 1 to 44 | > 5 | –
COC(=O)N[C@H](C(=O)N1CC2(CC2)C[C@H]1c1nc(-c2ccc3c(c2)C(F)(F)c2cc(-c4ccc5nc([C@@H]6[C@H]7CC[C@H](C7)N6C(=O)[C@@H](NC(=O)OC)C(C)C)[nH]c5c4)ccc2-3)c(Cl)[nH]1)C(C)C [Example 382] | – | – | – | – | 0.001 to 0.99 | – | 0.006 | – | – | EC50 ([1]; genotype 1a replicon): 0.001 to 0.999 nM; EC50 [3]: > 44 nM; EC50 [4, 10]: > 5 nM
COC(=O)N[C@H](C(=O)N1CCC[C@H]1c1nc2ccc3cc(-c4ccc5cc(-c6cnc([C@@H]7CCCN7C(=O)[C@H](NC(=O)OC)c7ccccc7)[nH]6)ccc5c4)ccc3c2[nH]1)[C@@H](C)OC [Example 271] | – | – | – | – | 0.001 to 0.99 | 0.001 to 0.999 | 0.008 | 0.001 to 0.999 | 0.001 to 0.99 | –
COC(=O)N[C@H](C(=O)N1CCC[C@H]1c1ncc(-c2ccc3cc(-c4ccc(-c5cnc([C@@H]6CC7(CN6C(=O)[C@H](NC(=O)OC)c6ccccc6)OCCO7)[nH]5)cc4)ccc3c2)[nH]1)C1CCOCC1 [Example 47] | 0.001 to 0.999 | 0.037 | 0.001 to 0.999 | 1 to 4.99 | 0.001 to 0.99 | – | – | – | – | –
